The source of these data is patent US4423221A, “7-Carboethoxy-morphinan-6-one compounds” (SISA Pharmaceutical Laboratories, Inc., priority 1982, dated 1983).

In assay [1] the test system is mice. Description: Acetic acid mouse writhing test (analgesic effects). Type of assay: in vivo, male CD-1 mice. The settings on record: subcutaneous, 0.5% acetic acid i.p. 15 min post drug, writhes counted over 20 min; for ED50: Mus musculus, sc, read-out: ED50 (dose required to reduce the number of writhes by 50%). As for the experimental part: (A) Analgesic effects upon mice (acetic acid writhing test).
Acetic Acid Mouse Writhing Test
Analgesic effects of the test compounds were determined in mice by use of the acetic acid writhing test described by B. A. Whittle, Brit. J. Pharmacol., 22:246 (1964). In this test, at least 3 groups of 5 male CD-1 mice each were given subcutaneous doses of the test drug dissolved in distilled water. In all cases, 0.4 milliliters of a 0.5% V/V acetic acid in distilled water solution was administered intraperitoneally 15 minutes post drug. The number of writhes in a 20 minute interval beginning 5 minutes after the acetic acid injection were determined and compared with the number of writhes in a control group which had received only acetic acid.
Percent inhibition of writhing was calculated as: [formula]
The ED50 dose, i.e., the dose required to reduce the number of writhes by 50%, was determined graphically from a plot of % inhibition as a probit verus log dose. Confidence limits of 95% were calculated on the basis of those results falling in the range 16-84% inhibition. See Lichtfield, J. T. and Wilcoxon, F., J. Pharmacol. Exp. Ther., 96, 99-113 (1949).
(Writhing tests count abdominal constrictions after an irritant is injected.)

Assay [2] concerns rats. Put plainly: Narcotic antagonist activity, modified rat tail flick test (against ED80 dose of morphine). Type of assay: in vivo, male albino Wistar rats. To be noted: ip, test drug intraperitoneally, ED80 dose of morphine s.c. 10 min later, retest 20 min after morphine, read-out: AD50 (dose required to inhibit the effect of morphine by 50%). As for the experimental part:
(B) Narcotic antagonist activity in rats (modified rat tail flick test).
Evaluation of Narcotic Antagonist Activity
The narcotic antagonist effect of the test compound was determined by a modification of the rat tail flick procedure of Harris and Pierson (J. Pharmacol. Exp. Ther., 143:141 [1964]).
Male albino Wistar rats (100-120 g) were used for this study. A rat's tail is so placed so as to cover a photocell. Heat is applied by a lamp in a reflector with a timer being connected to the lamp and photocell so that the timer goes on when the light is turned on and is turned off when the photocell is uncovered. A rheostat, incorporated into a heating lamp, is used to adjust the intensity of the light falling on the tail of the rat such that the rat's control reaction time is from 2 to 4 seconds. Animals with a control reaction time outside this range are rejected. The rheostat adjustment is made only if a significant proportion (1 out of every 10 rats) of the reaction times are outside the range of 2 to 4 seconds. Groups of 5 rats were used, and 2 control times were determined at 60 and 30 minutes prior to […] injection of the drug.
At least 30 minutes after the last control run the test drug was given intraperitoneally. This was followed 10 minutes later by an ED80 dose of morphine subcutaneously. The animals were retested at 20 minutes after the morphine injection. Control animals were given vehicle and morphine only. The data were calculated as follows: [formula]
The data were plotted on log-probit paper and AD50 values, i.e., the dose required to inhibit the effect of morphine by 50% within 95% confidence limits, were determined by the method of Lichtfield and Wilcoxon.
(Hot-plate and tail-flick tests time the reaction to a heat stimulus.)

Consider `CCOC(=O)C1C[C@H]2[C@H]3Cc4ccc(O)cc4[C@@]2(CCN3CC2CC2)CC1=O` (stereo partly drawn) [TR-5308, 7-carboethoxy-17-cyclopropylmethyl-3-hydroxy-morphinan-6-one], for which the ED50 is 4.9 mg/kg in assay [1] and 3.12 mg/kg in assay [2].
For `CCOC(=O)C1C[C@H]2[C@H]3Cc4ccc(O)cc4[C@@]2(CCN3CC2CCC2)CC1=O` (stereo partly drawn) [TR-5307, 7-carboethoxy-17-cyclobutylmethyl-3-hydroxy-morphinan-6-one], in that order: 1.15 mg/kg and greater than 10 mg/kg.
With `CCOC(=O)C1C[C@H]2[C@H]3Cc4ccc(OC)cc4[C@@]2(CCN3C)CC1=O` (stereo partly drawn) [TR-5318, 7-carboethoxy-3-methoxy-17-methylmorphinan-6-one], the ED50 in assay [1] is 4.6 mg/kg.
In the case of `CCOC(=O)C1C[C@H]2[C@H]3Cc4ccc(OC)cc4[C@@]2(CCN3CC2CC2)CC1=O` (stereo partly drawn) [TR-5299, 7-carboethoxy-17-cyclopropylmethyl-3-methoxy-morphinan-6-one], the ED50 in assay [1] was greater than 10 mg/kg; in assay [2], 13 mg/kg.
With `CCOC(=O)C1CC2C3Cc4ccc(OC)cc4C2(CCN3CC2CCC2)CC1=O` (stereo not drawn) [TR-5300, 7-carboethoxy-17-cyclobutylmethyl-3-methoxy-morphinan-6-one], in assay [1], the “ED50 (dose required to reduce the number of writhes by 50%)” value is recorded as “IA 10.0”. Further, in assay [2], the ED50 is 13 mg/kg.
As for `CCOC(=O)C1C[C@@H]2[C@H]3Cc4ccc(O)cc4[C@@]2(CCN3C)CC1=O` (stereo partly drawn) [TR-5338, 7-carboethoxy-3-hydroxy-17-methyl-14α-morphinan-6-one], the values for the ED50 in assay [1] and in assay [2] were 0.6 mg/kg and 0.7 mg/kg, respectively.
With `CCOC(=O)C1C[C@@H]2[C@H]3Cc4ccc(OC)cc4[C@@]2(CCN3CC2CC2)CC1=O` (stereo partly drawn) [TR-5337, 7-carboethoxy-17-cyclopropylmethyl-3-methoxy-14α-morphinan-6-one], the “ED50 (dose required to reduce the number of writhes by 50%)” value in assay [1] is “IA 10.0”. For the same compound, in assay [2], the ED50 was greater than 10 mg/kg.
As to `CCOC(=O)C1C[C@@H]2[C@H]3Cc4ccc(O)cc4[C@@]2(CCN3CC2CC2)CC1=O` (stereo partly drawn) [TR-5339, 7-carboethoxy-17-cyclopropylmethyl-3-hydroxy-14α-morphinan-6-one], the ED50 in assay [1] was found to be 3.7 mg/kg; in assay [2] it was 2.54 mg/kg.
For `CCOC(=O)C1C[C@H]2[C@H]3Cc4ccc(O)cc4[C@@]2(CCN3C)CC1=O` (stereo partly drawn) [TR-5320, 7-carboethoxy-3-hydroxy-17-methylmorphinan-6-one], in that order: 0.72 mg/kg and 3.6 mg/kg.
`CCOC(=O)C1C[C@@H]2[C@H]3Cc4ccc(OC)cc4[C@@]2(CCN3C)CC1=O` (stereo partly drawn) [TR-5336, 7-carboethoxy-3-methoxy-17-methyl-14α-morphinan-6-one]: in assay [1], the ED50 is greater than 10 mg/kg.
